Results: ChEMBL document CHEMBL1201862, “PubChem BioAssay data set” (2004)
The source made the active and inactive calls.

How the values were obtained:
[1] = NIH3T3 cell viability loss – ATP luminescence, mouse fibroblasts, counter-screen, dose response (AID 2010); format: functional, cell-based;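 further: cells exposed to compound for about 90 hours before reading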
[2] = Trypanosoma cruzi growth suppression in host cells – NIH3T3 host cells, beta-gal luminescence, confirmation (AID 2044); format: functional, cell-based;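 further: intracellular parasites grown in NIH/3T3 mouse fibroblasts as host cells; luminescent beta-galactosidase reporter signal from transgenic T. cruzi replicating inside host cells; inhibitors lower the luminescence signal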
[3] = target: T1, Corticotropin-releasing factor receptor 2/Corticotropin-releasing factor-binding protein (Homo sapiens, UniProt P24387+Q13324); experiment: activators of CRF receptor 2 with binding protein – uHTS hits, confirmation (AID 602473); format: functional; conditions: read-out: EC50_Mean
T1 sequence (Q13324 whole entry): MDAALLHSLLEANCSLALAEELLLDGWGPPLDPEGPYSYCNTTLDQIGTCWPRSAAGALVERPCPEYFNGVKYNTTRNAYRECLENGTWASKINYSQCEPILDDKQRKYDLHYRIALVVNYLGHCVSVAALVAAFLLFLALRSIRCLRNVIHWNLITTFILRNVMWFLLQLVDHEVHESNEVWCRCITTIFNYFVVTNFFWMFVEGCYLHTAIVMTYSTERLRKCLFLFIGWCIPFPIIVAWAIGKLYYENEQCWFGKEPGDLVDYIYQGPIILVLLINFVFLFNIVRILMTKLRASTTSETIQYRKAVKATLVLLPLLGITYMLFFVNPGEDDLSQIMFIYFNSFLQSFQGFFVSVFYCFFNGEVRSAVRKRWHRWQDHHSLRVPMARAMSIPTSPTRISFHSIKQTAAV
T1 sequence (P24387 whole entry): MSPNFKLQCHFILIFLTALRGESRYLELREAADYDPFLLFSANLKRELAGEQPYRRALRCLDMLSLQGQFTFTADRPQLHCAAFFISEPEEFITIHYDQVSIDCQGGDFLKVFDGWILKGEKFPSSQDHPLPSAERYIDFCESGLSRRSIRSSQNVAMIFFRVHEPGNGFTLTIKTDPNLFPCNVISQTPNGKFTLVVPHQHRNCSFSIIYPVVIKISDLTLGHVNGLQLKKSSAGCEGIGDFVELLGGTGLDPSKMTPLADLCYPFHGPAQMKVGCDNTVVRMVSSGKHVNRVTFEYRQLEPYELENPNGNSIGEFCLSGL

[4] = target: T1, Corticotropin-releasing factor receptor 2/Corticotropin-releasing factor-binding protein; experiment: Dose Response confirmation of uHTS hits for small molecule antagonists of the CRF-binding protein and CRF-R2 receptor complex.; format: functional; conditions: read-out: IC50_Mean
[5] = viability loss in THP-1 monocytes – THP-1 cells, cytotoxicity control for Vif-APOBEC3G degradation inhibitor project, dose response (AID 1117359); format: functional; conditions: THP-1
[6] = target: T2, Short transient receptor potential channel 4 (Mus musculus, UniProt Q9QUQ5); experiment: block of DAMGO-driven TRPC4 calcium entry – cell-based, HEK293 TRPC4/mu-opioid, Fluo-4 calcium, dose response (AID 434942); format: functional;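 further: potency of inhibitors blocking the TRPC4 calcium response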
T2 sequence (Q9QUQ5 whole entry): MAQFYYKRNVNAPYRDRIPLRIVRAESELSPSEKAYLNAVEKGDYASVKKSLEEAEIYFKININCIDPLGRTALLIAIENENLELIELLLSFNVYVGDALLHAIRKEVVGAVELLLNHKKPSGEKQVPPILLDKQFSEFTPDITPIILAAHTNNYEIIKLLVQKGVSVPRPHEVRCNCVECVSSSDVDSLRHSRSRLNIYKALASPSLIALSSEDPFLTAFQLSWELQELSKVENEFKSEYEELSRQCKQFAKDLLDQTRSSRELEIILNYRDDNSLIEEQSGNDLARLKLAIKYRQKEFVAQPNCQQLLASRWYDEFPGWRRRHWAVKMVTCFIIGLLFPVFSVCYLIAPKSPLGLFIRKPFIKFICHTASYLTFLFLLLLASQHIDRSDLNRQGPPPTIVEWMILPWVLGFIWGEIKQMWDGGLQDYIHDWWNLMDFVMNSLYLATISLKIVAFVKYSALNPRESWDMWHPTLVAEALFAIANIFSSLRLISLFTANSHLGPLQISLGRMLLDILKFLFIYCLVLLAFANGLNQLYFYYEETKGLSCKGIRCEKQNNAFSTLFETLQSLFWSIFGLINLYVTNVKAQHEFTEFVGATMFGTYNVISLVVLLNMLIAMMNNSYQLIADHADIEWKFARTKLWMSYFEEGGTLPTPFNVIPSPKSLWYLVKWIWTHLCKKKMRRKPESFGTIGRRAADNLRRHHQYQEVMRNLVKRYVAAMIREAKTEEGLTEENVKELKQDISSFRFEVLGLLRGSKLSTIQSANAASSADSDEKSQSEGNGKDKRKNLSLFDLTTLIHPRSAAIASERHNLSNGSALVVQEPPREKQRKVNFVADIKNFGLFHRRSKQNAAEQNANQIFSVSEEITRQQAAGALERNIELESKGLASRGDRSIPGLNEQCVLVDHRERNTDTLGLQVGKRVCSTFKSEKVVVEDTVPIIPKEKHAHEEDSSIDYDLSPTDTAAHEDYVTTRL

HEK293 [7] = experiment: inhibition of NOD1-driven NF-kB reporter – cell-based, luminescence, uHTS, primary screen (AID 1578); format: functional; conditions: Homo sapiens
HEK293 [8] = experiment: cells; format: functional, cell-based; conditions: Homo sapiens
HEK293 [9] = experiment: cells; format: functional, cell-based; conditions: Homo sapiens; remark: listed apart in the source
HEK293 [10] = experiment: NOD2 signaling inhibitors in MDP-stimulated cells, cell-based, uHTS, luminescence (AID 2001); format: functional; conditions: Homo sapiens
HEK293 [11] = experiment: cells; format: functional, cell-based; conditions: Homo sapiens; remark: listed apart in the source
[12] = target: Nucleotide-binding oligomerization domain-containing protein 2 (Homo sapiens, UniProt Q9HC29); experiment: inhibition of NOD2-driven NF-kB reporter – cell-based, luminescence, uHTS, HEK293 (AID 1566); format: functional
Sequence of Nucleotide-binding oligomerization domain-containing protein 2 (Q9HC29 whole entry, the tested form may be a part): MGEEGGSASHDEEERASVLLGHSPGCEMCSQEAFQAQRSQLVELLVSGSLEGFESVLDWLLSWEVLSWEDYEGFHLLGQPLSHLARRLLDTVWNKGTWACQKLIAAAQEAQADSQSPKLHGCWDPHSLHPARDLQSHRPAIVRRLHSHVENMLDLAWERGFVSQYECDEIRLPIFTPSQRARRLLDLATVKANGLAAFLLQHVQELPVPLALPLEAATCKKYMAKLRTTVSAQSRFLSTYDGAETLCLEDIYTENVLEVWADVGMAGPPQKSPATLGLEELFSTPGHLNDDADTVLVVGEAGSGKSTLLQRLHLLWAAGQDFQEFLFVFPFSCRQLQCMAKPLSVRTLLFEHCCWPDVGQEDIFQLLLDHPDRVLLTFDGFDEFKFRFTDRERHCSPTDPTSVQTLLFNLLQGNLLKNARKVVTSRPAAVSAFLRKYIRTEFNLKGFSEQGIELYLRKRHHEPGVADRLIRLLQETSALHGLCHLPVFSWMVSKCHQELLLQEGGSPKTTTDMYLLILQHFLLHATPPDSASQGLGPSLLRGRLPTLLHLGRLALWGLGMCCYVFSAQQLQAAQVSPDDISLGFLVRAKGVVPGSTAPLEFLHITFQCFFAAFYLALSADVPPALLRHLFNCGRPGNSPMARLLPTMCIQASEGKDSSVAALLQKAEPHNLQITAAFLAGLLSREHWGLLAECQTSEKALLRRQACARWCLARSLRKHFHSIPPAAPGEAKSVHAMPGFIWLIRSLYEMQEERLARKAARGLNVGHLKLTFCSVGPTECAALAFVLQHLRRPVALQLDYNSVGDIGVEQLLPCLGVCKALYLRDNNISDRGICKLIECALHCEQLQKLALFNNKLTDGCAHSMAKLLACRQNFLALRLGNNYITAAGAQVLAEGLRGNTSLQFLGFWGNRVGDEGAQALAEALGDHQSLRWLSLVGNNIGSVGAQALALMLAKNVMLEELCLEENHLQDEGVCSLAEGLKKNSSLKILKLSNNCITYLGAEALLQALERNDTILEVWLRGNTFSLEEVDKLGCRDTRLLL

Estrogen receptor = target: T3, Estrogen receptor (Homo sapiens, UniProt P03372);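 further: potency for inhibiting coactivator peptide recruitment to the receptor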
T3 sequence (P03372 whole entry): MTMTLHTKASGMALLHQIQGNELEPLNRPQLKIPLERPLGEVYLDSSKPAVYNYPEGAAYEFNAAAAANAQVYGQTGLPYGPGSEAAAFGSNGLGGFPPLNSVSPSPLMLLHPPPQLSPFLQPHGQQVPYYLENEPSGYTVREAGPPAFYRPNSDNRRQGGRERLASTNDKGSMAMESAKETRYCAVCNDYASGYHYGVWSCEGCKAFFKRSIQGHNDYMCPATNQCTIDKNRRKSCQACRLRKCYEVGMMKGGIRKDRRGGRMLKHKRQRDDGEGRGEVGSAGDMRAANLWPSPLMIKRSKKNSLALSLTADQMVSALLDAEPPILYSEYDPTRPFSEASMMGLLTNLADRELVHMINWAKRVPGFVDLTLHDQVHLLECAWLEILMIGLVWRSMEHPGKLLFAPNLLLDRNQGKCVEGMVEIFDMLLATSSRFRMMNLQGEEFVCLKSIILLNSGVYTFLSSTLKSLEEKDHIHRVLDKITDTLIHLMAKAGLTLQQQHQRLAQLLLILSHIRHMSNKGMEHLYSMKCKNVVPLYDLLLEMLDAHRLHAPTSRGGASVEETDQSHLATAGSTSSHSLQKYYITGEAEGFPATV

[13] = target: T4, Rac GTPase-activating protein 1 (Homo sapiens, UniProt Q9H0H5); experiment: blockers of MgcRacGAP-driven Rac1 GTP hydrolysis – biochemical, ADP Hunter fluorescence, primary and confirmatory, confirmation (AID 624330); format: functional
T4 sequence (Q9H0H5 whole entry): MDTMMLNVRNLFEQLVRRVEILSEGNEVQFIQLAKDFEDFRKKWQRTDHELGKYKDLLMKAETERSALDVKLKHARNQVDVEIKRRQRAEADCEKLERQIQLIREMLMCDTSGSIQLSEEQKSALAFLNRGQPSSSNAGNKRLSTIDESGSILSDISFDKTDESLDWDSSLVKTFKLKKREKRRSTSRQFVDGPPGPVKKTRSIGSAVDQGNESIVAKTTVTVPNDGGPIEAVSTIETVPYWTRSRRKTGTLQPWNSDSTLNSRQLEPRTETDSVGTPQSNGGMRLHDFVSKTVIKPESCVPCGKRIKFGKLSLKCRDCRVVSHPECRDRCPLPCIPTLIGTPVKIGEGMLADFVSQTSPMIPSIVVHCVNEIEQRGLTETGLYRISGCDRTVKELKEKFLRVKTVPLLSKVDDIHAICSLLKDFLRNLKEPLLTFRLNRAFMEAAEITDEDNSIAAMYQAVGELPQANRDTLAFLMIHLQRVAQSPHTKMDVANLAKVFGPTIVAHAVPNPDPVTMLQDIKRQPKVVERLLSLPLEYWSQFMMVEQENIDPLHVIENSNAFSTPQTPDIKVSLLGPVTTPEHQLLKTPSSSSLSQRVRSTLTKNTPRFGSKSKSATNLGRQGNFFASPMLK

[14] = blockers of HIV-1 envelope-mediated cell-cell fusion – cherry-pick, dose response (AID 652057); format: functional, cell-based
[15] = Dd2 malaria parasite growth inhibition potency – SYBR Green, dry powder samples, dose response (AID 1159566); format: functional, cell-based;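 further: potency for growth inhibition with lower SYBR green DNA signal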
[16] = growth inhibition of PfATP4-mutant resistant parasites – NITD609-resistant line, SYBR Green, dry powder, dose response (AID 1159571); format: functional, cell-based;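 further: parasites synchronized at ring stage by sorbitol before testing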
[17] = HIV-1 AD8 envelope cell-cell fusion blockers – cherry-pick, dose response (AID 652062); format: functional, cell-based;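 further: luciferase signal from cell-cell fusion driven by HIV-1 clade B AD8 Env; potency is for inhibitors of fusion seen as a drop in luminescence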
[18] = P. falciparum Dd2 growth inhibitors, dose response, SYBR Green, cherry-picked samples (AID 1159567); format: functional, cell-based
[19] = growth inhibition of yeast DHODH-expressing 3D7 parasites – SYBR Green, dry powder samples, dose response (AID 1159570); format: functional, cell-based;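 further: parasite growth measured after 72 hours of compound exposure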
[20] = blockers of HIV-1 ZM109 envelope-driven cell-cell fusion – HeLa effector, CEM target cells, luciferase, cherry-pick, dose response (AID 652058); format: functional, cell-based;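 further: luciferase signal from HIV-1 Env mediated cell-cell fusion of effector and target cells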
[21] = toxicity to human HepG2 hepatoma cells – cell-based, plate reader, dry powder samples, cytotoxicity control, dose response (AID 1159569); format: functional;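 further: inhibitor potency with signal falling toward the positive control level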
Paired box protein Pax-8 = Paired box protein Pax-8 (Homo sapiens, UniProt Q06710); experiment: PAX8 transcriptional activity inhibition in RMG-I – RMG-I cells, luciferase, cherry-pick, dose response (AID 687027); format: functional, cell-based;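 further: luciferase reporter driven by Pax8 target thyroperoxidase promoter measured by SteadyGlo luminescence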
Sequence of Paired box protein Pax-8 (Q06710 whole entry): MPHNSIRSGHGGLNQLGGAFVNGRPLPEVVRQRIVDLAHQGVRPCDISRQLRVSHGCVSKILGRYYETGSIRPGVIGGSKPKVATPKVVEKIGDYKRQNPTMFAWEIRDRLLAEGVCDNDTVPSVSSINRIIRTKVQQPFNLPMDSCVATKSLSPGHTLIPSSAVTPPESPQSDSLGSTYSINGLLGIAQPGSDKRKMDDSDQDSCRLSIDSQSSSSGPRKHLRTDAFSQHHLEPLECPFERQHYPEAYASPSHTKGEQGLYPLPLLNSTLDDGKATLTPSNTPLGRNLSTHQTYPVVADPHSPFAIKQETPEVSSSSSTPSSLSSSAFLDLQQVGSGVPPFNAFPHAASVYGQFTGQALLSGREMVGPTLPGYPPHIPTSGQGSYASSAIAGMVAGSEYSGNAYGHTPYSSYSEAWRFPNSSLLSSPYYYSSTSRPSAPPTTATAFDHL

[22] = toxicity to human hepatoma HepG2 cells – cell-based, cherry-picked samples, cytotoxicity control, dose response (AID 1159577); format: functional

SMILES: CCOC(=O)c1c(C)[nH]c(C(=O)OCC(=O)Nc2sc(C(=O)N(C)C)c(C)c2C(=O)OCC)c1C
- EC50 [1]: > 60 µM (not active)
- EC50 [2]: 0.36 µM (active)
- EC50 [3]: > 53 µM (inactive)
- IC50 [4]: > 47.1 µM (inactive)
- CC50 [5]: > 40 µM (active)

SMILES: Cc1cccc(CCN(C(=O)c2snc(C(N)=O)c2N)C(C(=O)NCC2CCCO2)c2ccc(F)cc2)c1 (stereo not given)
- EC50 [6]: 2.66 µM (active)

SMILES: Cc1cc(C)cc(OCC(=O)Nc2nc3ccc([N+](=O)[O-])cc3s2)c1
- EC50 (HEK293 [7]): 4.56 µM (active)
- IC50 (HEK293 [8]): > 20 µM (inactive)
- IC50 (HEK293 [9]): > 20 µM (inactive)
- IC50 (HEK293 [10]): 8.1 µM (active)
- IC50 (HEK293 [11]): 1.83 µM (active)
- EC50 [12]: 7.65 µM (active)

SMILES: O=c1[nH]c2cc3c(cc2cc1CN(Cc1cccs1)Cc1nnnn1Cc1ccco1)OCCO3
- IC50 (Estrogen receptor): > 50 µM (not active)

SMILES: CCOc1cc(/C=C2\C(=N)N3N=CSC3=NC2=O)ccc1OS(=O)(=O)c1ccccc1
- EC50 [6]: 4.73 µM (active)

SMILES: C=CCc1ccc(OCCOCCNCCCC)c(OC)c1
- CC50 [5]: > 40 µM (active)
- IC50 [13]: 132 µM (active)

SMILES: COc1ccc(-n2nc(C(=O)Nc3ccc(OC)c(OC)c3)c3c4ccccc4n(C)c3c2=O)cc1
- IC50 (Estrogen receptor): > 50 µM (not active)

SMILES: COc1ccc(C)cc1NC(=O)CSc1ccc(-c2sc(C)nc2C)nn1
- EC50 (HEK293 [7]): 9.47 µM (active)
- IC50 (HEK293 [8]): > 20 µM (inactive)
- IC50 (HEK293 [9]): > 20 µM (inactive)
- IC50 (HEK293 [10]): 10.7 µM (inactive)
- IC50 (HEK293 [11]): 14.1 µM (active)
- EC50 [12]: 4.63 µM (active)

SMILES: c1ccc2[nH]c(CCCCc3nc4ccccc4[nH]3)nc2c1
- EC50 [6]: 2.37 µM (active)

SMILES: CS(=O)(=O)N(CC(=O)NCc1ccco1)c1ccc2c(c1)OCO2
- IC50 (Estrogen receptor): 40.1 µM (not active)

SMILES: CC(OC(=O)c1cccc(O)c1)C(=O)N(C)Cc1ccccc1 (stereo not given)
- CC50 [5]: > 40 µM (active)

SMILES: C[C@H](CO)N1C[C@H](C)[C@@H](CN(C)C(=O)Nc2ccc(F)cc2)OCc2ccccc2-c2c(n(C)c3ccccc23)C1=O
- AC50 [14]: < 0.26 µM (active)
- AC50 [15]: 0.348 µM (active)
- AC50 [16]: 0.397 µM (active)
- AC50 [17]: < 0.26 µM (active)
- AC50 [18]: 0.907 µM (active)
- AC50 [19]: 0.662 µM (active)
- AC50 [20]: < 0.26 µM (active)
- AC50 [21]: 46.8 µM (active)
- AC50 (Paired box protein Pax-8): 24.6 µM (active)

SMILES: COc1ccccc1CN1C[C@@H]2N[C@H](C1)[C@@H]2c1ccc(-c2ccc(C#N)cc2)cc1
- AC50 [15]: 1.68 µM (active)
- AC50 [16]: 2.8 µM (active)
- AC50 [22]: 13.7 µM (active)
- AC50 [18]: 2.36 µM (active)
- AC50 [19]: 2.39 µM (active)
- AC50 [21]: 7.43 µM (active)

SMILES: N#Cc1ccc(-c2ccc([C@H]3[C@@H]4CN(C(=O)C5CCCCC5)C[C@H]3N4)cc2)cc1
- AC50 [15]: 3.47 µM (active)
- AC50 [16]: 4.16 µM (active)
- AC50 [22]: 24.1 µM (active)
- AC50 [18]: 2.2 µM (active)
- AC50 [19]: 3.78 µM (active)
- AC50 [21]: 42.9 µM (active)

SMILES: Clc1ccc(Nc2nc(-c3ccncc3)cs2)cc1
- EC50 [1]: 4 µM (active)
- EC50 [2]: 0.329 µM (active)
- IC50 (Estrogen receptor): 18.2 µM (active)
